Reference: PubChem BioAssay AID1117347 (Cheminformatics & Chemogenomics Research Group (CCRG), …, 2015)
Activity calls are given as the source filed them. No rule for the calls is given here.

These molecules were tested on HeLa cell count decrease (assay: decrease in HeLa cell numbers, dose-response curve, cell enumeration, 50% inhibitory concentration (AID 1117347)).

| Structure (SMILES) | IC50 |
| --- | --- |
| O=C(O)CCCc1ccc(N(CCCl)CCCl)cc1 | > 10000 nM (inactive) |
| Cc1nc2ccccc2n1Cc1ccc(Cl)cc1 | 31.8 nM |
| CCCCC1C(=O)N(c2ccccc2)N(c2ccc(O)cc2)C1=O (centres undefined) | 1660 nM |
| CC(C)(C)C(=O)OCOP(=O)(COCCn1cnc2c(N)ncnc21)OCOC(=O)C(C)(C)C | 134 nM |
| Cc1ccccc1C(=O)Nc1ccc(C(=O)N2CCCC(N(C)C)c3ccccc32)cc1 (centres undefined) | 2910 nM |
| NC(N)=NN=C(/C=C/c1ccc([N+](=O)[O-])o1)/C=C/c1ccc([N+](=O)[O-])o1 | > 10000 nM (inactive) |
| CC[C@@H]([C@H](C)O)n1ncn(-c2ccc(N3CCN(c4ccc(OC[C@@H]5CO[C@@](Cn6cncn6)(c6ccc(F)cc6F)C5)cc4)CC3)cc2)c1=O | > 10000 nM (inactive) |
| CC(C)n1c(/C=C/[C@@H](O)C[C@@H](O)CC(=O)O)c(-c2ccc(F)cc2)c2ccccc21 | > 10000 nM (inactive) |
| CC(C)C[C@H](NC(=O)[C@H](CCc1ccccc1)NC(=O)CN1CCOCC1)C(=O)N[C@@H](Cc1ccccc1)C(=O)N[C@@H](CC(C)C)C(=O)[C@@]1(C)CO1 | 9.9 nM |
| COc1cc2c(c(OC)c1OC)-c1ccc(OC)c(=O)cc1[C@@H](NC(C)=O)CC2 | 1.88 nM |
| CC(=O)Nc1ccn(C2COC(COC(=O)c3ccccc3)O2)c(=O)n1 (centres undefined) | 281 nM |
| O=C1C(I)=CC(=C(c2cc(I)c(O)c(I)c2)c2ccccc2C(=O)O)C=C1I | > 10000 nM (inactive) |
| Fc1ccc(C(OCCN2CCN(CCCc3ccccc3)CC2)c2ccc(F)cc2)cc1 | 3200 nM |
| O[C@@H](CNC[C@H](O)[C@H]1CCc2cc(F)ccc2O1)[C@@H]1CCc2cc(F)ccc2O1 | 5560 nM (inactive) |
| COc1cccc2c1C(=O)c1c(O)c3c(c(O)c1C2=O)C[C@@](O)(C(C)=O)C[C@@H]3O[C@H]1C[C@H](N)[C@H](O)[C@H](C)O1 | 8.05 nM |
| COC(=O)Nc1nc2ccc(Sc3ccccc3)cc2[nH]1 | 9.7 nM |
| O=C(O)c1ccc(-n2nc(-c3ccccc3O)nc2-c2ccccc2O)cc1 | 5680 nM (inactive) |
| CCCCCCCCCCCC(=O)[O][Sn]([CH2]CCC)([CH2]CCC)[O]C(=O)CCCCCCCCCCC | > 10000 nM (inactive) |
| CCN(CC)CCCC(C)Nc1c2ccc(Cl)cc2nc2ccc(OC)cc12 (centres undefined) | 1330 nM |
| CN(C)CCOC(c1ccccc1)c1ccc(Br)cc1 (centres undefined) | > 10000 nM (inactive) |
| Cc1ccc(CCn2c3c(c4cc(Cl)ccc42)CN(C)CC3)cn1 | > 10000 nM (inactive) |
| CC(=O)N(O)CCCCCNC(=O)CCC(=O)N(O)CCCCCNC(=O)CCC(=O)N(O)CCCCCN | > 10000 nM (inactive) |
| O=C(Nc1ccc([N+](=O)[O-])cc1Cl)c1cc(Cl)ccc1O | 144 nM |

| Structure (SMILES) | IC50 |
| --- | --- |
| O=C(Nc1ccc(Br)cc1)c1cc(Br)cc(Br)c1O | > 10000 nM (inactive) |
| CCCOc1ccc2nc(NC(=O)OC)[nH]c2c1 | 46.7 nM |
| NCCCC[C@H](N[C@@H](CCc1ccccc1)C(=O)O)C(=O)N1CCC[C@H]1C(=O)O | > 10000 nM (inactive) |
| CO[C@@H]1[C@@H](OC)[C@H](C)[C@@](O)(CC(=O)O)O[C@H]1[C@H](C)[C@H]1O[C@@]2(CC[C@@](C)([C@H]3CC[C@@](C)([C@@H]4O[C@@H]([C@H]5O[C@](C)(O)[C@H](C)C[C@@H]5C)C[C@@H]4OC4C[C@H](OC)[C@@H](OC)[C@H](C)O4)O3)O2)C[C@H](O)[C@H]1C (some centres undefined) | 2750 nM |
| CC(C)c1c(C(=O)Nc2ccccc2)c(-c2ccccc2)c(-c2ccc(F)cc2)n1CC[C@@H](O)C[C@@H](O)CC(=O)O | > 10000 nM (inactive) |
| CC(C)OC(=O)OCOP(=O)(CO[C@H](C)Cn1cnc2c(N)ncnc21)OCOC(=O)OC(C)C | 289 nM |
| Cc1cc(C2CCCCC2)n(O)c(=O)c1 | 569 nM |
| CCN(CC)CCNc1ccc(CO)c2sc3ccccc3c(=O)c12 | 5920 nM (inactive) |
| COc1ccc(-c2ccc3cc(C(=O)O)ccc3c2)cc1C12CC3CC(CC(C3)C1)C2 | 5490 nM (inactive) |
| CCN(CC)CCNC(=O)c1c(C)[nH]c(/C=C2\C(=O)Nc3ccc(F)cc32)c1C | 1280 nM |
| CC[n+]1c(-c2ccccc2)c2cc(N)ccc2c2ccc(N)cc21 | > 10000 nM (inactive) |
| C[C@@H]1C[C@@H]([C@H](O)CC2CC(=O)NC(=O)C2)C(=O)[C@@H](C)C1 | 542 nM |
| CCN(CCCCOC(=O)c1ccc(OC)c(OC)c1)C(C)Cc1ccc(OC)cc1 (centres undefined) | > 10000 nM (inactive) |
| CCCCOC(=O)c1ccc(N)cc1 | > 10000 nM (inactive) |
| O=c1[nH]c(=O)n([C@H]2C[C@H](O)[C@@H](CO)O2)cc1Br | > 10000 nM (inactive) |
| Nc1nc(=O)n([C@@H]2O[C@H](CO)[C@@H](O)[C@@H]2F)cc1I | 8500 nM (inactive) |
| CC[C@H](C)C(=O)O[C@H]1C[C@@H](C)C=C2C=C[C@H](C)[C@H](CC[C@@H]3C[C@@H](O)CC(=O)O3)[C@H]21 | > 10000 nM (inactive) |
| C[n+]1c2cc(N)ccc2cc2ccc(N)cc21 (tested in a mixture with another compound) | 472 nM |
| CCCCC(CC)CN=C(N)NC(N)=NCCCCCCN=C(N)NC(N)=NCC(CC)CCCC (centres undefined) | 18.6 nM |
| CCCCc1ccc2nc(NC(=O)OC)[nH]c2c1 | 5.66 nM |
| Nc1ccc2cc3ccc(N)cc3nc2c1 | 1340 nM |
| C[C@]12CC[C@@H]3c4ccc(O)cc4CC[C@H]3[C@@H]1CC[C@@H]2OC(=O)CCC1CCCC1 | > 10000 nM (inactive) |
| Cc1ccc(S(=O)(=O)NC(=O)NN2CC3CCCC3C2)cc1 (centres undefined) | > 10000 nM (inactive) |

| Structure (SMILES) | IC50 |
| --- | --- |
| Cc1cc(N)c2ccccc2[n+]1CCCCCCCCCC[n+]1c(C)cc(N)c2ccccc21 | > 10000 nM (inactive) |
| CC(=O)Oc1ccccc1C(=O)Nc1ncc([N+](=O)[O-])s1 | > 10000 nM (inactive) |
| CCCCCCCCCCCCCCCC[N+](C)(C)CCN(Cc1ccc(OC)cc1)c1ncccn1 | 349 nM |
| O=C1c2c(O)cccc2Cc2cccc(O)c21 | > 10000 nM (inactive) |
| NC(=NCCCCCCN=C(N)/N=C(\N)Nc1ccc(Cl)cc1)/N=C(\N)Nc1ccc(Cl)cc1 | 6710 nM (inactive) |
| Cc1ccccc1C(OCCN(C)C)c1ccccc1 (centres undefined) | > 10000 nM (inactive) |
| CN(C)c1ccc2nc3ccc(=[N+](C)C)cc-3sc2c1 | > 10000 nM (inactive) |
| CC(=O)[C@]1(O)Cc2c(O)c3c(c(O)c2[C@@H](O[C@H]2C[C@H](N)[C@H](O)[C@H](C)O2)C1)C(=O)c1ccccc1C3=O | 14.2 nM |
| COC(=O)c1nc(Cl)c(Cl)nc1N | 408 nM |
| CN(Cc1cnc2nc(N)nc(N)c2n1)c1ccc(C(=O)N[C@@H](CCC(=O)O)C(=O)O)cc1 | > 10000 nM (inactive) |
| O=c1[nH]c(=O)n([C@H]2C[C@H](O)[C@@H](CO)O2)cc1I | > 10000 nM (inactive) |
| COC(=O)Nc1nc2ccc(S(=O)c3ccccc3)cc2[nH]1 (centres undefined) | 258 nM |
| O=C(O)CN(CCN(CC(=O)O)CC(=O)O)CCN(CC(=O)O)CC(=O)O | > 10000 nM (inactive) |
| CCCCCCNC(=O)n1cc(F)c(=O)[nH]c1=O | > 10000 nM (inactive) |
| Cc1nc(Nc2ncc(C(=O)Nc3c(C)cccc3Cl)s2)cc(N2CCN(CCO)CC2)n1 | 875 nM |
| CC[C@]1(O)C[C@H]2CN(CCc3c([nH]c4ccccc34)[C@@](C(=O)OC)(c3cc4c(cc3OC)N(C=O)[C@H]3[C@@](O)(C(=O)OC)[C@H](OC(C)=O)[C@]5(CC)C=CCN6CC[C@]43[C@@H]65)C2)C1 | 6.5 nM |
| Cc1c(C)c2c(c(C)c1O)CCC(C)(COc1ccc(CC3SC(=O)NC3=O)cc1)O2 (centres undefined) | > 10000 nM (inactive) |
| C[C@@H](O[C@H]1OCCN(Cc2n[nH]c(=O)[nH]2)[C@H]1c1ccc(F)cc1)c1cc(C(F)(F)F)cc(C(F)(F)F)c1 | > 10000 nM (inactive) |
| COc1cc([C@@H]2c3cc4c(cc3[C@H](O)[C@H]3COC(=O)[C@H]23)OCO4)cc(OC)c1OC | 4.8 nM |
| Cc1ccc2c(c1)c1c3n2CCNC3CCC1 (centres undefined) | > 10000 nM (inactive) |
| O=C(CCBr)N1CCN(C(=O)CCBr)CC1 | > 10000 nM (inactive) |
| O=c1[nH]cc(F)c(=O)[nH]1 | > 10000 nM (inactive) |
| O=C1C(=O)c2ccccc2C(O)=C1C1CCC(c2ccc(Cl)cc2)CC1 (centres undefined) | > 10000 nM (inactive) |
